Active and inactive are the calls of the source. The rule behind the calls is not given here.
Experiments:
[1] = Cytotoxicity against African green monkey Vero cells assessed as cell viability at 100 uM by MTT assay relative to control; format: cell-based; details: chlorocebus sabaeus, read-out: Activity
[2] = test system: Leishmania donovani; test: Antileishmanial activity against Leishmania donovani MHOM/IN/80/Dd8 promastigotes harboring luciferase reporter gene assessed as inhibition of viability at 3.12 to 100 uM after 24 to 72 hrs by MTT assay relative to control; format: functional
[3] = test system: Leishmania donovani; test: Antileishmanial activity against Leishmania donovani MHOM/IN/80/Dd8 promastigotes harboring luciferase reporter gene assessed as reduction in parasite viability after 48 hrs by MTT assay; format: functional, organism-based; details: MHOM/IN/80/Dd8, 48 h
[4] = test system: Leishmania donovani; test: Antileishmanial activity against Leishmania donovani MHOM/IN/80/Dd8 amastigotes harboring luciferase reporter gene infected in mouse J774 cells at 3.12 to 100 uM after 48 hrs by Steady-Glo luminescence assay relative to control; format: functional
[5] = Stability in mouse plasma at 10 ug/ml measured after 2 hrs by UPLC analysis relative to control; format: ADME, cell-free; details: read-out: Stability
[6] = Stability in mouse liver microsomes assessed as compound remaining after 1 hr in presence of NADPH by UPLC analysis; format: ADME, Microsome; details: read-out: Stability
[7] = test system: Leishmania donovani; test: (§1) Antileishmanial activity against Leishmania donovani promastigotes infected in BALB/c mouse assessed as reduction in parasite burden in spleen at 25 mg/kg, ip administered for 7 days starting at 15 days post-infection and measured after 1 week post last dose Giemsa staining-based assay relative to control; format: functional
[8] = test system: Leishmania donovani; test: as §1, with “inhibition” for “reduction”, “liver” for “spleen”, “50” for “25”; format: functional
[9] = test system: Leishmania donovani; test: as §1, with “inhibition” for “reduction”, “200” for “25”; format: functional
[10] = test system: Leishmania donovani; test: Antileishmanial activity against Leishmania donovani amastigotes infected in golden hamster assessed as reduction in parasite burden in spleen at 50 mg/kg, ip administered on alternative days for 4 weeks starting at 4 weeks post-infection and measured after 2 week post last dose Giemsa staining-based assay relative to control; format: functional
[11] = test system: J774; test: Immunostimulatory activity in mouse J774 cells infected with Leishmania donovani promastigotes assessed as increase in TNF-alpha cytokine production at 50 uM after 48 hrs by ELISA; format: functional, cell-based
[12] = test system: Leishmania donovani; test: Inhibition of ubiquinol cytochrome c reductase in Leishmania donovani promastigotes mitochondria at 8.1 to 50 uM using decylubiquinol as substrate in presence of cytochrome c
[13] = Toxicity in golden hamster infected with Leishmania donovani amastigotes assessed as effect on body weight at 12.5 to 200 mg/kg, ip administered on alternative days for 4 weeks starting at 4 weeks post-infection; format: organism-based, Mesocricetus auratus; details: in vivo, 672 h

SMILES: CCOC(=O)C(C(=O)c1ccc(OC)cc1)C(NC(C)=O)c1cccc2ccccc12 (stereo not drawn)
- viability at 100 µM [1]: 95.5%
- inhibition (INH) [2]: 95.4%
- IC50 [3]: 9.1 µM
- inhibition (INH) [4]: >92%
- remaining at 2 h, 10 ug/ml [5]: 81%
- remaining at 1 h [6]: 86.9%
- inhibition in vivo at 25 mg/kg [7]: 68.5%
- inhibition in vivo at 50 mg/kg [8]: 91.5%
- inhibition in vivo at 200 mg/kg [9]: 93.1%
- inhibition in vivo at 50 mg/kg [10]: 90.4%
- Activity [11]: inactive
- inhibition [12]: Active
- Activity [13]: Non-Toxic

Reference: ChEMBL document CHEMBL4406843, “β-Amino acid derivatives as mitochondrial complex III inhibitors of L. donovani: A promising chemotype targeting visceral leishmaniasis” (Eur J Med Chem, 2019)
